Reference: BindingDB's records for doi:10.1016/j.chembiol.2011.05.008 (Stanford University, 2011)
*1 amine or outer side, *2 acyl side, *3 side chain or, on linkers, in order; H or OH if unused. Where a SMILES comes first, the peptide text is derived from it. [ ]: non-standard residue; d: D form. The star is where a group is joined. ξ: configuration not given here. ξThr(3S) = C[C@H](O[*:3])C(N[*:1])C(=O)[*:2]; X2 = O=C(CN*)COC(=O)c1c2ccccc2cc2ccccc12; X1 = O=C(Cc1ccc(O)c([N+](=O)[O-])c1)*

Tests used:
Assay in all cases: Fluorogenic Assay
Conditions in all cases: pH 8; 37 °C
[1] = target: T1, Sentrin-specific protease 2 (Homo sapiens, UniProt Q9HC62)
T1 sequence (Q9HC62 whole entry): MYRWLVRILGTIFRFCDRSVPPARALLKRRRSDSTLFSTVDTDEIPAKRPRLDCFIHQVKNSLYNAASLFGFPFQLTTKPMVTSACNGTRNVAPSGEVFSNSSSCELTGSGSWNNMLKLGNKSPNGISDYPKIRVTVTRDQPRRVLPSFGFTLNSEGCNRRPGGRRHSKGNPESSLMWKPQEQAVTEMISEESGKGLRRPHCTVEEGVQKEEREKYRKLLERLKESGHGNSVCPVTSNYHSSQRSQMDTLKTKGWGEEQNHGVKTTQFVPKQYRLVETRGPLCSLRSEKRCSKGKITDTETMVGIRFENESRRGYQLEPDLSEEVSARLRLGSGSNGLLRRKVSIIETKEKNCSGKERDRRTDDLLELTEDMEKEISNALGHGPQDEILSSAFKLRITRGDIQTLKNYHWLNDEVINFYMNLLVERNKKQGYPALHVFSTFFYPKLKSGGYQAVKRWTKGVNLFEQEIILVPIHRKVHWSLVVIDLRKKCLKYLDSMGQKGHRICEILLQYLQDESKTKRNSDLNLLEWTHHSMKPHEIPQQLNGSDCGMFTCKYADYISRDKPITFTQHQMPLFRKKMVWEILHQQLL

[2] = target: T2, Sentrin-specific protease 7 (Homo sapiens, UniProt Q9BQF6)
T2 sequence (Q9BQF6 whole entry): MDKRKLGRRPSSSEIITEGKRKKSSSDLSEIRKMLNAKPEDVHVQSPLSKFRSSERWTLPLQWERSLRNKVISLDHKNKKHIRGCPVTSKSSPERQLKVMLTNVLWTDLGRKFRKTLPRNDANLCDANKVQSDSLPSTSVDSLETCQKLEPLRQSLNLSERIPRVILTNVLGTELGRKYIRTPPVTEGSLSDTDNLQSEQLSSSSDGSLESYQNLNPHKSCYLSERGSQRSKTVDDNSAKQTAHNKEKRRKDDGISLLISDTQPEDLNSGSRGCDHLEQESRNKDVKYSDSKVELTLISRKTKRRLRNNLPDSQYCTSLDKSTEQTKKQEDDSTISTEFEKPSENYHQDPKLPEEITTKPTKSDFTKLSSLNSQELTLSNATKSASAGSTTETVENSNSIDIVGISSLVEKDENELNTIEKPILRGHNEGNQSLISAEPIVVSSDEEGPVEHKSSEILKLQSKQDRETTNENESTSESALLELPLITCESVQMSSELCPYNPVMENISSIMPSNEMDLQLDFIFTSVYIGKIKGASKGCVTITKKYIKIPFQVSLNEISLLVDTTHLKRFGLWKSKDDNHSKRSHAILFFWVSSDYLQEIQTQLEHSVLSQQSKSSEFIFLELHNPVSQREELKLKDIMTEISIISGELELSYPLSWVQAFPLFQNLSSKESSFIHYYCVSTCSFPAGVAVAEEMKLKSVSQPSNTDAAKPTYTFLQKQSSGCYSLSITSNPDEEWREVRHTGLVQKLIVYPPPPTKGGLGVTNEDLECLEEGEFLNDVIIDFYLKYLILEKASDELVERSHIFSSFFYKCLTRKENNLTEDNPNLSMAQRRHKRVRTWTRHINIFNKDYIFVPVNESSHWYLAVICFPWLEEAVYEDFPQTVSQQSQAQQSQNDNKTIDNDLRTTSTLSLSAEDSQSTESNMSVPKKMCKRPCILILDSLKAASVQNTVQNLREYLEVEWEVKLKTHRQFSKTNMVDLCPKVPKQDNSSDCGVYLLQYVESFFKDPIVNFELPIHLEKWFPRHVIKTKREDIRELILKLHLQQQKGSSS

[3] = target: T3, Sentrin-specific protease 6 (Homo sapiens, UniProt Q9GZR1)
T3 sequence (Q9GZR1 whole entry): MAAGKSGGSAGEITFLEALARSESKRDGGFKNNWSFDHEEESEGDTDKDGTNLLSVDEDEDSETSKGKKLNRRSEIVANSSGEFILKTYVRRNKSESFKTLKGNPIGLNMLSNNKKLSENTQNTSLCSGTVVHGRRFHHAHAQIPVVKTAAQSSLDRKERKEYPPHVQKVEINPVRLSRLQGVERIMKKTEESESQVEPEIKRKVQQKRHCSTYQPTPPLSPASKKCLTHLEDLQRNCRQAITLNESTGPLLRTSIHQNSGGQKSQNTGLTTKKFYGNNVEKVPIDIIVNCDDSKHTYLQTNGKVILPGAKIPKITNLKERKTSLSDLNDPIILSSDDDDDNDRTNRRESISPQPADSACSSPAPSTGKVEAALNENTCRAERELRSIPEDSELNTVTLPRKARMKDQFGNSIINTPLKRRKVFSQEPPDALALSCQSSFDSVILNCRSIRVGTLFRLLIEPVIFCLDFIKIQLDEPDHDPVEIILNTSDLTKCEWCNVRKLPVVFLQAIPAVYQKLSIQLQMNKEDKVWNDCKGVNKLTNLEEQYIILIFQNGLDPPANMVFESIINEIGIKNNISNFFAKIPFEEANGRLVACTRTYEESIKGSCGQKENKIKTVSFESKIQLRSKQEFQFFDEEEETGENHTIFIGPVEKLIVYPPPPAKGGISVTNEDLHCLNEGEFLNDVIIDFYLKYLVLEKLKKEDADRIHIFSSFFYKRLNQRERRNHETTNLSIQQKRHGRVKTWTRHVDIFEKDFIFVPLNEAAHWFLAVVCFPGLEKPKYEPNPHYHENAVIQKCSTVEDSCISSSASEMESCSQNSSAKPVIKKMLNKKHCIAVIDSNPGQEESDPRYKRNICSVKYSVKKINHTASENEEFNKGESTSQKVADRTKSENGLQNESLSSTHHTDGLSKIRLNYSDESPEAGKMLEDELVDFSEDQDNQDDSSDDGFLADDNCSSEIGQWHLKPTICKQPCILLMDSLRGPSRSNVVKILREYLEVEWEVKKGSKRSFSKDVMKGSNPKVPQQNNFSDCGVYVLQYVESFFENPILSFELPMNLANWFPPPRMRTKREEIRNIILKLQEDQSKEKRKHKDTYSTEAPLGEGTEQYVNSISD

[4] = target: T4, Sentrin-specific protease 1 (Homo sapiens, UniProt Q9P0U3)
T4 sequence (Q9P0U3 whole entry): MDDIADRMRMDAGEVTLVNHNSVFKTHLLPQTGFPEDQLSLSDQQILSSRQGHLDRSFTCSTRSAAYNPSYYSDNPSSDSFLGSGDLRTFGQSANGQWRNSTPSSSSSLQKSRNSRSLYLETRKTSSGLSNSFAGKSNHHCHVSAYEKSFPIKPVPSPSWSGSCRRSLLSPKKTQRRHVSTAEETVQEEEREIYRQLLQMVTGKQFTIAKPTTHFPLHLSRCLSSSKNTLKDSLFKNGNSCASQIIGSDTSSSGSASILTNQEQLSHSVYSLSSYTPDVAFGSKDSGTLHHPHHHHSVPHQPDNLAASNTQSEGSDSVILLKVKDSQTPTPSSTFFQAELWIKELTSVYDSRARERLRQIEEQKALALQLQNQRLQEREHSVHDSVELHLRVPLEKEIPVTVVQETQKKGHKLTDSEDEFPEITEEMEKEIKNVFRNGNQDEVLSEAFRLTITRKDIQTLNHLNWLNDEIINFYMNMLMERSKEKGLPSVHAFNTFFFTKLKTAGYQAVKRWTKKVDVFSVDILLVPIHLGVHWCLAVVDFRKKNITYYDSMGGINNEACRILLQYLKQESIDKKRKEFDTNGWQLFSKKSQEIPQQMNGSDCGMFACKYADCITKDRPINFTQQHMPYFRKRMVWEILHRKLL
Experimental: The fluorogenic substrate library screen was performed with hSENP1 in low salt tris buffer at final concentration of 2uM. Fluorophore release (AFC) production was measured using fluorescence plate reader at 405nm/510nm for 10-60min.

Row | Compound | IC50 [1] [µM] | IC50 [2] [µM] | IC50 [3] [µM] | IC50 [4] [µM]
1 | NC(=O)CNC(=O)c1ccc(C(=O)NNC(=O)[C@H]2O[C@@H]2C(=O)N(Cc2cccc3ccccc23)Cc2cccc3ccccc23)cc1 [VEA-417] | 13.1 | > 70 | > 100 | 32.5
2 | C[C@H](O)C(NC(=O)[C@H](CCC(N)=O)NC(=O)Cc1ccc(O)c([N+](=O)[O-])c1)C(=O)NCC(=O)NCC(=O)COC(=O)c1c2ccccc2cc2ccccc12 (some centres not stated) [VEA-499] | 0.25 | > 100 | > 60 | 3.6
3 | NC(=O)[C@H](CC(=O)O)NC(=O)c1ccc(C(=O)NNC(=O)[C@H]2O[C@@H]2C(=O)N(Cc2cccc3ccccc23)Cc2cccc3ccccc23)cc1 [VEA-422] | 10.4 | > 70 | > 100 | 22.4
4 | O=C(O)c1cccc(C(=O)NCc2ccc(C(=O)NNC(=O)[C@H]3O[C@@H]3C(=O)N(Cc3cccc4ccccc34)Cc3cccc4ccccc34)cc2)c1 [VEA-260] | 3.7 | 36.5 | > 100 | 7.1
5 | CC(C)C[C@H](NC(=O)Cc1ccc(O)c([N+](=O)[O-])c1)C(=O)N[C@@H](CCCNC(=N)N)C(=O)NCC(=O)NCC(=O)COC(=O)c1c2ccccc2cc2ccccc12 [VEA-561] | 5.7 | 4.3 | 4.2 | > 25
6 | C[C@H](O)C(NC(=O)[C@H](CCC(N)=O)NC(=O)[C@H](CCC(N)=O)NC(=O)Cc1ccc(O)c([N+](=O)[O-])c1)C(=O)NCC(=O)NCC(=O)COC(=O)c1c2ccccc2cc2ccccc12 (stereo partly drawn) [VEA-500] (X1-QQ[ξThr(3S)]G-X2) | 0.86 | > 100 | > 40 | > 20
7 | O=C(CNC(=O)c1ccc(CNC(=O)c2cccc(C(=O)O)c2)cc1)COC(=O)c1c2ccccc2cc2ccccc12 [VEA-401] | 13.4 | > 20 | > 40 | 23.1
8 | O=C(O)CN(NC(=O)c1ccc(CNC(=O)c2cccc(C(=O)O)c2)cc1)C(=O)[C@H]1O[C@@H]1C(=O)N(Cc1cccc2ccccc12)Cc1cccc2ccccc12 [JCP-666] | 7 | > 70 | > 100 | 13.8
